Reference: patent US8785374B2, “Inhibitors of mammalian tight junction opening” (Alba Therapeutics Corporation, priority 2007, dated 2014)
Non-standard residues stand in square brackets, D forms with d. No end group written: not given here. pGlu = O=C1CC[C@@H](C(=O)O)N1; Gip = not defined here

Assays:
[1] = system: CaCo2 monolayers (tight junctions); test: Inhibition of agonist-induced decrease in trans epithelial electric resistance (TEER) of CaCo2 monolayers; details: for Prevented TEER Reduction: inhibition of the reduction in TEER induced by SEQ ID NO:70 (FCIGRL), CaCo2 monolayers
Excerpt: (§1) Measurement of the Inhibition of the Decrease in Trans Epithelial Electric Resistance (TEER) and Epithelial Flux of a Fluorescent Marker Lucifer Yellow
(§2) Antagonists of tight junctions can be identified by their ability to prevent or decrease the enhancement of the flux of compounds (e.g. Lucifer Yellow) through the monolayer induced by agonists of tight junctions (e.g., SEQ ID NO: 70). Antagonists of tight junctions can also be identified by their ability to prevent the decrease in TEER induced by agonists of tight junctions (e.g., SEQ ID NO: 70).
(§3) Tight junction antagonists can be identified using the following method:
(§4) Prepare Modified Hank's Balanced Salt Solution (MHBSS) by obtaining IL bottle of HBSS removing 10 ml of HBSS and replacing it with 10 ml HEPES buffer pH 7.0. Adjust pH to 7.4±0.1 using concentrated NaOH (10N).
(§5) Remove Caco-2 cells from incubator, grown on 12-well, […], polycarbonate Transwell® filters (Corning) and record passage number, date cells seeded and age in days.
(§6) Aspirate cell culture medium from both the apical (AP) and basolateral (BL) compartments, replacing with 0.5 ml and 1.5 ml of MHBSS, respectively. Incubate cells at 37° C. for 30 minutes.
Using the MilliCell®-ERS instrument (Millipore), measure and record the transepithelial electrical resistance (TEER) across each filter and record.
(§7) Prepare a stock solution of the Antagonist Pretreatment Solution by dissolving the appropriate amount of antagonist in MHBSS. Vortex or sonicate the solution until it is clear then adjust pH to 7.4±0.1 using 1N NaOH. Preincubate each filter for 30 min with these solutions at 37° C. and 50 RPM.
(§8) Prepare stock solutions of Antagonist Treatment Solution by dissolving appropriate amounts of antagonist and agonist (for example, a peptide agonist such as a peptide having the sequence FCIGRL (SEQ ID NO: 70)) in 7.5 mM Lucifer Yellow solution in MHBSS. Vortex or sonicate the solution until it is clear then adjust pH to 7.4±0.1 using 1N NaOH.
(§9) Aspirate Antagonist Pretreatment Solution from the apical compartment of each filter (n=3 per condition) and replace with 0.5 ml of control and test solutions.
(§10) Place all plates into incubator set at 37° C. (±0.2), 50 RPM (±5) for a total of 180 minutes.
At t=30, 60, 120 and 180 minutes, measure and record the transepithelial electrical resistance (TEER) across each filter using the MilliCell-ERS instrument.
(§11) Cells: Caco-2 cells passage 40-60 grown on Transwell® plates for 21-28 days
(§12) SEQ ID NO: 70 is a 6-mer peptide tight junction agonist having the sequence FCIGRL. See US patent publication US 2005/0059593 A1. In the following tables + indicates attenuation of the effects of the tight junction agonist were observed and − indicates no attenuation of the effects of the tight junction agonist were observed.

[2] = system: CaCo2 monolayers (tight junctions); test: Inhibition of agonist-induced Lucifer Yellow flux through CaCo2 monolayers; details: for Reduced LY Permeability: inhibition of the increase in Lucifer Yellow permeability induced by SEQ ID NO:70 (FCIGRL), CaCo2 monolayers
Excerpt: as §1, §2, §3, §4, §5, §6, §7, §8, §9, §10
At t=60, 120 and 180 minutes remove 100 μl from each basolateral compartment and place it in a 96-well plate for Lucifer Yellow analysis, replace with 100 μl of HBSS.
Make a Lucifer Yellow standard curve with the following dilutions (7500 μM, 3750 μM, 750 μM, 375 μM, 75 μM, 37.5 μM, 7.5 μM, 3.75 μM, 0.75 μM) and pipette 100 μL of each into a 96-well plate except for the first three standards mentioned above which require a 1:10 dilution prior to transferring to the 96-well plate.
At t=0 make 1:10 dilutions of each starting Antagonist Treatment Solution mentioned above and pipette 100 μL of each into a 96-well plate.
At t=180 make 1:10 dilutions of Antagonist Treatment Solution from the apical compartment of each filter and pipette 100 μL of each into the 96-well plate.
Analyze each 96-well plate in a Tecan Spectra Fluor Plus using Magellan at 485 and 535 nm.
as §11, §12

[3] = agonist alone, compared to vehicle alone

Substance	Prevented TEER Reduction [1]	Reduced LY Permeability [2]	Decrease of TEER in CaCo2 monolayers [1, 3] [fold]	Enhancement of Lucifer Yellow permeability through CaCo2 monolayers [2, 3] [fold]
Leu-Pro-Gly (LPG; Tight junction antagonist) [SEQ ID NO: 25]	+	+		
Glp-Asp-Gly ([pGlu]-Asp-Gly) [SEQ ID NO: 50]	−	−		
Val-Gln-Pro-Gly (VQPG; Tight junction antagonist) [SEQ ID NO: 5]	+	+		
His-Pro-Gly (HPG; Tight junction antagonist) [SEQ ID NO: 18]	+	+		
Lys-Pro-Gly (KPG; Tight junction antagonist) [SEQ ID NO: 24]	+	+		
Glp-Thr-Gly ([pGlu]-Thr-Gly) [SEQ ID NO: 42]	−	−		
Glp-His-Gly ([pGlu]-His-Gly) [SEQ ID NO: 45]	−	−		
Leu-Val-Gln-Pro-Gly (LVQPG; Tight junction antagonist) [SEQ ID NO: 4]	+	+		
(d)Gln-Pro-Gly ([dQ]-Pro-Gly) [SEQ ID NO: 10]	+	+		
GGVLVQPG [SEQ ID NO: 1, reference compound]	+	+		
Glp-Trp-Gly ([pGlu]-Trp-Gly) [SEQ ID NO: 49]	−	−		
Glp-Ile-Gly ([pGlu]-Ile-Gly) [SEQ ID NO: 43]	−	−		
(d)Gln-(d)Pro-Gly ([dQ]-[dP]-Gly) [SEQ ID NO: 12]	−	−		
Glp-Pro-Lys ([pGlu]-Pro-Lys) [SEQ ID NO: 64]	−	−		
Glp-Pro-Asn ([pGlu]-Pro-Asn) [SEQ ID NO: 54]	+	−		
Phe-Pro-Gly (FPG; Tight junction antagonist) [SEQ ID NO: 21]	+	+		
Thr-Pro-Gly (TPG; Tight junction antagonist) [SEQ ID NO: 30]	−	+		
Val-Pro-Gly (VPG; Tight junction antagonist) [SEQ ID NO: 34]	−	+		
Glp-Pro-Met ([pGlu]-Pro-Met) [SEQ ID NO: 68]	+	−		
Gly-(d)Pro-(d)Gln (Gly-[dP]-[dQ]) [SEQ ID NO: 16]	−	−		
Asn-Pro-Gly (NPG; Tight junction antagonist) [SEQ ID NO: 27]	+	+		
Tyr-Pro-Gly (YPG; Tight junction antagonist) [SEQ ID NO: 29]	+	+		
Glp-Leu-Gly ([pGlu]-Leu-Gly) [SEQ ID NO: 52]	−	−		
Glp-Glu-Gly ([pGlu]-Glu-Gly) [SEQ ID NO: 41]	−	−		
Ala-Pro-Gly (APG; Tight junction antagonist) [SEQ ID NO: 17]	+	+		
FCIGRL [FCIGRL, reference compound]			16	51
Arg-Pro-Gly (RPG; Tight junction antagonist) [SEQ ID NO: 20]	+	+		

Substance	Prevented TEER Reduction [1]	Reduced LY Permeability [2]	Decrease of TEER in CaCo2 monolayers [1, 3] [fold]	Enhancement of Lucifer Yellow permeability through CaCo2 monolayers [2, 3] [fold]
Glp-Lys-Gly ([pGlu]-Lys-Gly) [SEQ ID NO: 39]	−	−		
Met-Pro-Gly (MPG; Tight junction antagonist) [SEQ ID NO: 26]	+	+		
Gln-Pro-Ala (QPA; Tight junction antagonist) [SEQ ID NO: 9]	+	+		
Glp-Pro-His ([pGlu]-Pro-His) [SEQ ID NO: 60]	−	−		
Glp-Pro-Arg ([pGlu]-Pro-Arg) [SEQ ID NO: 62]	−	−		
Glp-Pro-Tyr ([pGlu]-Pro-Tyr) [SEQ ID NO: 69]	+	−		
Trp-Pro-Gly (WPG; Tight junction antagonist) [SEQ ID NO: 32]	+	+		
Glp-Phe-Gly ([pGlu]-Phe-Gly) [SEQ ID NO: 40]	−	−		
Gly-(d)Pro-Gln (Gly-[dP]-Gln) [SEQ ID NO: 14]	−	−		
Glp-Pro-Pro ([pGlu]-Pro-Pro) [SEQ ID NO: 57]	+	−		
Glp-Asn-Gly ([pGlu]-Asn-Gly) [SEQ ID NO: 46]	−	−		
Glp-Pro-Trp ([pGlu]-Pro-Trp) [SEQ ID NO: 58]	−	−		
Gly-Pro-Gly (GPG; Tight junction antagonist) [SEQ ID NO: 22]	+	+		
Glp-Gln-Gly ([pGlu]-Gln-Gly) [SEQ ID NO: 37]	−	−		
Glp-Pro-Phe ([pGlu]-Pro-Phe) [SEQ ID NO: 66]	−	−		
Gly-Pro-Gln (GPQ; Tight junction antagonist) [SEQ ID NO: 13]	+	+		
Glp-Tyr-Gly ([pGlu]-Tyr-Gly) [SEQ ID NO: 44]	−	−		
Glp-Pro-Glu ([pGlu]-Pro-Glu) [SEQ ID NO: 65]	−	−		
Glp-Pro-Ser ([pGlu]-Pro-Ser) [SEQ ID NO: 56]	−	−		
Glp-Pro-Gln ([pGlu]-Pro-Gln) [SEQ ID NO: 53]	−	−		
Gip-Pro-Ile ([Gip]-Pro-Ile; reading uncertain; also: printed as Gip-Pro-Ile) [SEQ ID NO: 67]	+	−		
Glp-Pro-Asp ([pGlu]-Pro-Asp) [SEQ ID NO: 59]	−	−		
Ala-Pro-Gly (APG; Tight junction antagonist) [SEQ ID NO: 7]	+	+		
Asp-Pro-Gly (DPG; Tight junction antagonist) [SEQ ID NO: 19]	−	−		
Glp-Arg-Gly ([pGlu]-Arg-Gly) [SEQ ID NO: 47]	−	−		
VLVQPG [SEQ ID NO: 3]	+	+		
